Tests used:
SCC-9 cells (OSCC cells) = test: MTT cell viability assay, SCC-9; assay type: cell-based, human; conditions: for IC50: Homo sapiens, SCC-9, 72 h, MTT, read-out: IC50 SCC-9 oral cancer; for SI (SCC-9): IC50 normal oral fibroblast / IC50 SCC-9
Method: (§1) Human SCC-4, SCC-9, and SCC-25 cells, derived from a human oral tongue SCC (squamous cell carcinoma), were obtained from ATCC (CRL-1624, CRL-1629, and CRL-1628, respectively) and maintained in 1:1 DMEM/F12 (Dulbecco’s modified Eagle’s medium and Ham’s F12 medium; Gibco (Thermo Fisher, Waltham, MA, USA)) supplemented with 10% (v/v) FBS (fetal bovine serum; Invitrogen, Thermo Fisher, Waltham, MA, USA) and 400 ng/mL hydrocortisone (Sigma-Aldrich Corporation, St. Louis, MO, USA). B16-F10 (melanoma; CRL-6475), HCT-116 (colorectal cancer; CCL-247), and HepG2 (liver cancer; HB-8065), in addition to primary normal human gingival fibroblasts obtained from ATCC (PCS-201-018), were maintained in DMEM supplemented with 10% (v/v) of FBS and were used in a maximum of six passages. Cells were grown in a humidified environment containing 5% CO2 at 37 °C. For all biological assays, compounds and shikonin were solubilized in 100% DMSO (all Sigma-Aldrich Corp.) to a final concentration of 10 mM and lapachol in ethanol. The carboplatin control was prepared in water (Fauldcarbo; Libbs Farmacêutica, São Paulo, SP, Brazil) and was used as a standard anticancer compound.
(§2) The viability of OSCC cell lines and primary human fibroblast cells was assessed using the MTT assay as in ref . Briefly, cells were grown in triplicate in 96-well plates (5 × 10^3 cells/well) until confluence. Then, the medium was removed, fresh medium was added, and the cells were returned to the incubator in the presence of different compounds. DMSO at the same concentration was used as a control for 100% cell viability. After 72 h, cells were incubated with 0.5 mg/mL of MTT reagent (3-(4,5-dimethyl-2-thiazolyl)-2,5-diphenyl-2-H-tetrazolium bromide) (Sigma-Aldrich Corporation, Louis, MO, USA) for 3.5 h. Then, the wells containing the cells were washed with PBS heated to 37 °C, the formazan crystals were dissolved in a solvent solution (DMSO/methanol 1:1 v/v), and the absorbance was read at 560 nm using an EPOCH microplate spectrophotometer (BioTek Instruments, Winooski, VT, USA) with the background absorbance at 670 nm subtracted. Control chemotherapeutics (carboplatin and shikonin) were used.
(§3) Data are presented as means ± SD. IC50 values for the MTT assays were obtained by nonlinear regression using the […] 8.4.3.0 program (Intuitive Software for Science, San Diego, CA, USA) from at least three independent experiments. A dose–response curve (inhibitor) vs response using the least-squares method was used to determine the IC50, SD, and R2 of the data. The selectivity index was calculated as SI = IC50 of the compound in normal oral fibroblast cells/IC50 of the same compound for each oral cancer cell line (SCC-4, SCC-9, and SCC-25) and averaged when indicated.

[1] = test system: primary normal human gingival fibroblasts; test: MTT cell viability assay, primary gingival fibroblasts; assay type: cell-based; conditions: Homo sapiens, Fibroblast; 72 h, MTT; read-out: IC50 primary gingival fibroblast
Method: as §1, §2, §3

SCC-25 cells = test: MTT cell viability assay, SCC-25; assay type: cell-based, human; conditions: for IC50: Homo sapiens, SCC-25, 72 h, MTT, read-out: IC50 SCC-25; for selective index (SI) SCC-25: vs normal oral fibroblasts
Method: as §1, §2, §3

[2] = test system: HCT-116 (colorectal cancer); test: MTT cytotoxicity/selectivity, HCT-116; assay type: cell-based; conditions: vs normal oral fibroblasts
Method: as §1
as §2, with “DMSO at the same concentration was used as a control for 100% cell viability. After 72 h, cells were incubated with 0.5 mg/mL of MTT reagent (3-(4,5-dimethyl-2-thiazolyl)-2,5-diphenyl-2-H-tetrazolium bromide) (Sigma-Aldrich Corporation, Louis, MO, USA) for 3.5 h.” left out, “Control chemotherapeutics (carboplatin and shikonin) were used.” left out
(§4) Data are presented as means ± SD. […] The selectivity index was calculated as SI = IC50 of the compound in normal oral fibroblast cells/IC50 of the same compound for each oral cancer cell line (SCC-4, SCC-9, and SCC-25) and averaged when indicated.

HepG2 (liver cancer) = test: MTT cytotoxicity/selectivity, HepG2; assay type: cell-based; conditions: vs normal oral fibroblasts
Method: as §1
as §2, with “DMSO at the same concentration was used as a control for 100% cell viability. After 72 h, cells were incubated with 0.5 mg/mL of MTT reagent (3-(4,5-dimethyl-2-thiazolyl)-2,5-diphenyl-2-H-tetrazolium bromide) (Sigma-Aldrich Corporation, Louis, MO, USA) for 3.5 h.” left out, “Control chemotherapeutics (carboplatin and shikonin) were used.” left out
as §4

[3] = test system: active caspase 3/7 in SCC-9 cells; test: Active caspase 3/7 staining; assay type: cell-based, human; conditions: 2 × IC50, 24 h
Method: The following reagents were used in this assay: CellEvent Caspase-3/7 Green Ready Probes Reagent kit (R37111, Thermo Fisher, Waltham, Massachusetts, USA). SCC-9 cells were plated in 24-well microplates in the amount of 5 × 10^4 cells per well as previously described in ref . […] The duration of the treatment time was 24 h. After this period, the cells were taken to the Zeiss Axio Observer A1 fluorescence optical microscope (Zeiss, Oberkochen, Baden-Württemberg, Germany) to obtain caspase labeling images from five different fields. Data quantification was performed using the ImageJ program, and the values of reactive cells for caspase were compared in relation to the total number of cells per field, and the result was given as a percentage.

SCC-9 cells = test: Reactive oxygen species production (ROS-Glo H2O2); assay type: cell-based, human; conditions: 2 × IC50, 24, 48 and 72 h, menadione positive control
Method: The assay was performed in SCC-9 cells as previously described. […] Menadione (M9529, Sigma-Aldrich Corporation, San Luis, Mo., USA), at a concentration of 20 μM, served as a positive control, while DMSO, at equivalent concentrations to the test substances, served as the negative control. Cells were then incubated at 37 °C with 5% CO2 for the indicated time, and ROS was measured by ROS-Glo H2O2 Assay G8820 (Promega Corporation, Madison, WI 53711 USA) as indicated by the vendor. The luminescence signal was measured using a luminescence detector, Luminometer TD-20/20 (Turner Designs Instrument, Sunnyvale, CA, USA).

SCC-9-LC3-GFP cells = test: Autophagy assay (LC3-GFP puncta); assay type: cell-based, human; conditions: 1 × IC50, 48 h
Method: To determine whether compounds 7a and 7e induce autophagy, SCC-9 cells were stably transduced with the plasmid expressing LC3-GFP as described. […] As a positive control, we used compound 8 (Supplementary Figure S1), an already described naphthoquinone-triazole-coumarin hybrid, able to induce autophagy at its IC50 concentration, 30 μM. After 48 h, the cells were visualized using a Zeiss Axio Observer A1 Fluorescence Optical Microscope (Zeiss, Oberkochen, Baden-Württemberg, Germany) to observe the formation of typical autophagy spots and photographed using a high-resolution monochromatic microscopy camera (Axiocam 503 mono, resolution: 1936 × 1460 pixels, pixel size: 4.54 μm × 4.54 μm) to maximize sensitivity and image quality.

Row | Structure (SMILES) | IC50 (SCC-9 cells (OSCC cells)) | SI (SCC-9) (SCC-9 cells (OSCC cells)) | IC50 [1] | IC50 (SCC-25 cells) | selective index (SI) SCC-25 (SCC-25 cells) | selective index (SI) HCT-116 colon cancer [2] | selective index (SI) HepG2 hepatocellular carcinoma (HepG2 (liver cancer)) | cells with positive staining for active caspases 3 and 7 [3] | ROS production (SCC-9 cells) | cells with LC3-positive puncta (autophagosome formation) (SCC-9-LC3-GFP cells)
1 | COc1ccc(SC2C3=C(OC(C)(C)C2Sc2ccc(OC)cc2)C(=O)c2ccccc2C3=O)cc1 (centres unmarked) [7e, 3,4-Bis((4-methoxyphenyl)thio)-2,2-dimethyl-3,4-dihydro-2H-benzo[g]chromene-5,10-dione] | 46.5 µM | 2.4 | 110 µM | 13 µM | 8.5 | 9.1 | 3.4 | 78.6% | induced the generation of ROS | 7.4%
2 | CC1(C)OC2=C(C(=O)c3ccccc3C2=O)C(Sc2ccccc2)C1Sc1ccccc1 (centres unmarked) [7a, 2,2-Dimethyl-3,4-bis(phenylthio)-3,4-dihydro-2H-benzo[g]chromene-5,10-dione] | 26.3 µM | 2.2 | 57.3 µM | 28.2 µM | 2.0 | 2.7 | 2.1 | 71% | induced the generation of ROS | 20.5%

From article PMC12444508, “Mechanistic Insights into the Anticancer Action of Novel 2‑Hydroxy-1,4-naphthoquinone Thiol Derivatives” (ACS Omega, 2025)
